Data published in patent US4791215A, “Derivatives of glutamic acid and aspartic acid” (priority 1984, dated 1988).

What was measured:
[1] = test system: CCK-8 induced contraction of guinea pig gall bladder; experiment: Anti-CCK activity on gall bladder strips in vitro; settings: CCK-8 10 ng/ml
Method: ANTI-CCK ACTIVITY ON GUINEA PIG GALL BALDDERS IN VITRO
A longitudinal strip of guinea pig gall bladder was placed in a bath of isolated members in the presence of Krebs at a temperature of 32° C. with continuous oxygenation with an oxygen-CO2 mixture (95-5V/V).
The isometric contractions were detected by means of a force transducer and recorded.
The gall bladder was made to contract with the use of a 10 ng/ml concentration of CCK-8; the antagonistic activity of the compounds of the invention on the contracting effect of the CCK was determined with the use of different concentrations and the ED 50 value, that is the concentration in μg/ml of a compound which could antagonise 50% of the contracting effect of the CCK, was determined.

morphine analgesia = experiment: Increase in analgesia of morphine, Tail Flick Test (Experiment 1); type: in vivo, rats; settings: for percentage variation of latency of pain sensation / M (10-90) ± SE, mean percentage variation of latency: compound 10 mg/kg i.p. + morphine 2 mg/kg; for M (10-90) ± SE, mean percentage variation of latency: mean 10-90 min; for Power ratio with respect to morphine alone: rat, in vivo
Method in brief: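 Non-fasted male rats (150-200 g); a tail point is exposed to a 75 °C heat source and latency to tail movement recorded, 8 s cut-off. Readings taken before and 10, 20, 30, 45, 60 and 90 min after analgesic treatment; percentage variation calculated per animal.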

CCCCNC(=O)CC(NC(=O)c1ccc(Cl)c(Cl)c1)C(=O)O [Compound D-3]
ED50 (concentration antagonising 50% of contracting effect of CCK-8) [1]: > 200 µg/mL | percentage variation of latency of pain sensation (morphine analgesia; 10'): 63.8 ± 17.0% | percentage variation of latency of pain sensation (morphine analgesia; 20'): 79.9 ± 13.0% | percentage variation of latency of pain sensation (morphine analgesia; 30'): 100.0 ± 0.0% | percentage variation of latency of pain sensation (morphine analgesia; 45'): 58.6 ± 18.0% | percentage variation of latency of pain sensation (morphine analgesia; 60'): 33.8 ± 18.0% | percentage variation of latency of pain sensation (morphine analgesia; 90'): 32.9 ± 10.0% | M (10-90) ± SE, mean percentage variation of latency (morphine analgesia): 61.5% | Power ratio with respect to morphine alone (morphine analgesia): 2.06

CCCN(CCC)C(=O)C(CCC(=O)O)NC(=O)c1ccc(Br)cc1 (stereo not drawn) [Compound C-15]
ED50 (concentration antagonising 50% of contracting effect of CCK-8) [1]: > 200 µg/mL | percentage variation of latency of pain sensation (morphine analgesia; 10'): 59.8 ± 14.0% | percentage variation of latency of pain sensation (morphine analgesia; 20'): 84.2 ± 9.6% | percentage variation of latency of pain sensation (morphine analgesia; 30'): 78.3 ± 13.5% | percentage variation of latency of pain sensation (morphine analgesia; 45'): 88.7 ± 8.5% | percentage variation of latency of pain sensation (morphine analgesia; 60'): 82.5 ± 12.7% | percentage variation of latency of pain sensation (morphine analgesia; 90'): 54.5 ± 14.7% | M (10-90) ± SE, mean percentage variation of latency (morphine analgesia): 74.7% | Power ratio with respect to morphine alone (morphine analgesia): 2.51

CCCN(CCC)C(=O)C(CC(=O)O)NC(=O)c1ccccc1Br (stereo not drawn) [Compound C-16]
ED50 (concentration antagonising 50% of contracting effect of CCK-8) [1]: > 200 µg/mL | percentage variation of latency of pain sensation (morphine analgesia; 10'): 43.2 ± 11.0% | percentage variation of latency of pain sensation (morphine analgesia; 20'): 88.7 ± 10.0% | percentage variation of latency of pain sensation (morphine analgesia; 30'): 54.8 ± 5.8% | percentage variation of latency of pain sensation (morphine analgesia; 45'): 47.3% | percentage variation of latency of pain sensation (morphine analgesia; 60'): 26.1 ± 11.5% | percentage variation of latency of pain sensation (morphine analgesia; 90'): 22.2 ± 16.7% | M (10-90) ± SE, mean percentage variation of latency (morphine analgesia): 47.0 ± 24.0% | Power ratio with respect to morphine alone (morphine analgesia): 1.58

CCCCCN(CCCCC)C(=O)C(CCC(=O)O)NC(=O)c1ccc(C)c(C)c1 (stereo not drawn) [Compound C-55]
ED50 (concentration antagonising 50% of contracting effect of CCK-8) [1]: 0.5 µg/mL | percentage variation of latency of pain sensation (morphine analgesia; 10'): 89.3 ± 16% | percentage variation of latency of pain sensation (morphine analgesia; 20'): 86.2 ± 12% | percentage variation of latency of pain sensation (morphine analgesia; 30'): 94.4% | percentage variation of latency of pain sensation (morphine analgesia; 45'): 100 ± 0% | percentage variation of latency of pain sensation (morphine analgesia; 60'): 100 ± 0% | percentage variation of latency of pain sensation (morphine analgesia; 90'): 81.7 ± 13% | M (10-90) ± SE, mean percentage variation of latency (morphine analgesia): 88.6 ± 12% | Power ratio with respect to morphine alone (morphine analgesia): 2.97

CCCN(CCC)C(=O)C(CCC(=O)O)NC(=O)c1cccc(Cl)c1 (stereo not drawn) [Compound C-2]
ED50 (concentration antagonising 50% of contracting effect of CCK-8) [1]: > 200 µg/mL | percentage variation of latency of pain sensation (morphine analgesia; 10'): 27.8 ± 13.0% | percentage variation of latency of pain sensation (morphine analgesia; 20'): 43.8 ± 25.0% | percentage variation of latency of pain sensation (morphine analgesia; 30'): 67.5 ± 20.0% | percentage variation of latency of pain sensation (morphine analgesia; 45'): 64.2% | percentage variation of latency of pain sensation (morphine analgesia; 60'): 74.4 ± 16.0% | percentage variation of latency of pain sensation (morphine analgesia; 90'): 57.3 ± 19.0% | M (10-90) ± SE, mean percentage variation of latency (morphine analgesia): 55.8 ± 17.0% | Power ratio with respect to morphine alone (morphine analgesia): 1.87

CCCN(CCC)C(=O)C(CCC(=O)O)NC(=O)c1cc(F)cc(F)c1 (stereo not drawn) [Compound C-13]
ED50 (concentration antagonising 50% of contracting effect of CCK-8) [1]: > 200 µg/mL | percentage variation of latency of pain sensation (morphine analgesia; 10'): 24.6 ± 8.9% | percentage variation of latency of pain sensation (morphine analgesia; 20'): 70.0 ± 18.5% | percentage variation of latency of pain sensation (morphine analgesia; 30'): 75.5 ± 15.0% | percentage variation of latency of pain sensation (morphine analgesia; 45'): 56.6% | percentage variation of latency of pain sensation (morphine analgesia; 60'): 62.3 ± 17.3% | percentage variation of latency of pain sensation (morphine analgesia; 90'): 59.2 ± 25.1% | M (10-90) ± SE, mean percentage variation of latency (morphine analgesia): 58.0 ± 18.0% | Power ratio with respect to morphine alone (morphine analgesia): 1.95

CCCN(CCC)C(=O)C(CCC(=O)O)NC(=O)c1c(C)cc(C)cc1C (stereo not drawn) [Compound C-33]
ED50 (concentration antagonising 50% of contracting effect of CCK-8) [1]: 131.7 µg/mL | percentage variation of latency of pain sensation (morphine analgesia; 10'): -0.1 ± 12% | percentage variation of latency of pain sensation (morphine analgesia; 20'): 30.9 ± 8% | percentage variation of latency of pain sensation (morphine analgesia; 30'): 38.7% | percentage variation of latency of pain sensation (morphine analgesia; 45'): 41.7 ± 16% | percentage variation of latency of pain sensation (morphine analgesia; 60'): 48.7 ± 21% | percentage variation of latency of pain sensation (morphine analgesia; 90'): 46.6 ± 12% | M (10-90) ± SE, mean percentage variation of latency (morphine analgesia): 34.4 ± 18% | Power ratio with respect to morphine alone (morphine analgesia): 1.15
